One test has as its system P388. As to the kind of experiment: Tested in vitro for cytotoxicity as concentration required to inhibit 50 percent growth of P388 murine leukemia cells. The format is functional, cell-based. To be noted: Mus musculus.
Test [1] has as its system Mus musculus. Briefly: In vivo antitumor activity against P388 murine leukemia as percentage increase in life span as compared with the untreated at a dose of 0.125 mg/kg administered intraperitoneally. The format is functional. As to conditions: P388, ip, route intraperitoneal.
For test [2], the system named is Mus musculus. As to the kind of experiment: In vivo antitumor activity against P388 murine leukemia as percentage increase in life span as compared with the untreated at a dose of 0.063 mg/kg administered intraperitoneally. As to conditions: P388, ip, route intraperitoneal. It is filed as functional.
Test [3] concerns Mus musculus. As to the kind of experiment: In vivo antitumor activity against P388 murine leukemia as percentage increase in life span as compared with the untreated at a dose of 1 mg/kg administered intraperitoneally. The format is functional. As to conditions: P388, ip, route intraperitoneal.
In test [4] the test system is Mus musculus. As to the kind of experiment: In vivo antitumor activity against P388 murine leukemia as percentage increase in life span as compared with the untreated at a dose of 0.5 mg/kg administered intraperitoneally. It is filed as functional. To be noted: P388, ip, route intraperitoneal.
The test system of test [5] is Mus musculus. Briefly: In vivo antitumor activity against P388 murine leukemia as percentage increase in life span as compared with the untreated at a dose of 0.25 mg/kg administered intraperitoneally. The format is functional. To be noted: P388, ip, route intraperitoneal.
The test system of test [6] is Mus musculus. As to the kind of experiment: In vivo antitumor activity against P388 murine leukemia as percentage increase in life span as compared with the untreated at a dose of 0.625 mg/kg administered intraperitoneally. The format is functional. To be noted: P388, ip, route intraperitoneal.

This note sets out measurements from ChEMBL document CHEMBL1150019, “Synthesis and antitumor activity of novel cyclopropapyrroloindole (CPI) derivatives bearing bis(methoxycarbonyl) groups” (Bioorg Med Chem Lett, 1997).

Values after ≈ are worked out from the molar mass of the structure shown.

`COC(=O)c1[nH]c2c(c1C(=O)OC)C13CC1CN(C(=O)c1cc4cc(OC)ccc4[nH]1)C3=CC2=O` (stereo not drawn): in the test on P388, 0.63 ng/mL (≈ 1.33 nM) corresponded to half-maximal inhibition (IC50). The increase in life span (ILS) (commonly how much longer treated animals lived than controls) at 0.125 mg/kg in the test with Mus musculus [1] worked out at 49%.
In the test with Mus musculus [2], `COC(=O)c1[nH]c2c(c1C(=O)OC)C13CC1CN(C(=O)c1cc4cc(OC)c(OC)c(OC)c4[nH]1)C3=CC2=O` (stereo not drawn) showed an increase in lifespan (ILS) at 0.063 mg/kg of 43%. For the same molecule, in the test on P388, the half-maximal inhibitory concentration (IC50) (commonly the concentration needed to halve the response being measured) came out at 0.74 ng/mL (≈ 1.38 nM).
The molecule `COC(=O)c1[nH]c2c(O)cc3c(c2c1C(=O)OC)C(CCl)CN3C(=O)c1cc2cc(OC)ccc2[nH]1` (stereo not drawn) gave an IC50 in the test on P388 of 0.27 ng/mL (≈ 0.527 nM). The same molecule came in with an ILS at 1 mg/kg in the test on Mus musculus [3] of 43%.
Molecule `COC(=O)c1[nH]c2c(O)cc3c(c2c1C(=O)OC)C(CCl)CN3C(=O)c1cc2cc(NC(=O)c3cc4ccccc4[nH]3)ccc2[nH]1` (stereo not drawn) yielded an increase in lifespan (ILS) at 0.5 mg/kg with Mus musculus [4] of 90%. This molecule came in with an IC50 with P388 of 0.24 ng/mL (≈ 0.375 nM).
Molecule `COC(=O)c1c(C)[nH]c2c(O)cc3c(c12)[C@H](CCl)CN3C(=O)c1cc2cc(OC)c(OC)c(OC)c2[nH]1` yielded a half-inhibitory concentration (IC50) in the test on P388 of 0.22 ng/mL (≈ 0.417 nM). The same molecule returned an ILS at 0.25 mg/kg in the test with Mus musculus [5] of 74%.
In the test on Mus musculus [1], `COC(=O)c1[nH]c2c(c1C(=O)OC)C13CC1CN(C(=O)c1cc4cc(NC(=O)c5cc6ccccc6o5)ccc4[nH]1)C3=CC2=O` (stereo not drawn) showed an ILS at 0.125 mg/kg of 79%.
Regarding `COC(=O)c1[nH]c2c(O)cc3c(c2c1C(=O)OC)C(CCl)CN3C(=O)c1cc2cc(OC)c(OC)c(OC)c2[nH]1` (stereo not drawn), the IC50 in the test with P388 came to 0.31 ng/mL (≈ 0.542 nM). In the test with Mus musculus [3], the increase in lifespan (ILS) at 1 mg/kg was 73%.
For the molecule `COC(=O)c1[nH]c2c(O)cc3c(c2c1C(=O)OC)C(CCl)CN3C(=O)c1cc2cc(NC(=O)c3cc4ccccc4o3)ccc2[nH]1` (stereo not drawn), the increase in life span (ILS) at 0.625 mg/kg in the test with Mus musculus [6] amounted to 115%. Further, inhibition in the test on P388 was half-maximal at 0.32 ng/mL (≈ 0.499 nM) (IC50).
Turning to `COC(=O)c1[nH]c2c(c1C(=O)OC)C13CC1CN(C(=O)c1cc4cc(NC(=O)c5cc6ccccc6[nH]5)ccc4[nH]1)C3=CC2=O` (stereo not drawn), the ILS at 0.125 mg/kg with Mus musculus [1] is 102%.
`COC(=O)c1c(C)[nH]c2c1[C@@]13CC1CN(C(=O)c1cc4cc(OC)c(OC)c(OC)c4[nH]1)C3=CC2=O` (mixture of isomers) returned a 50% inhibitory concentration (IC50) in the test with P388 of 0.34 ng/mL. The molecule further registered an increase in lifespan (ILS) at 0.125 mg/kg in the test with Mus musculus [1] of 80%.
